Activity calls are given as the source filed them. The calls are words filed in the database; no cut-off is given here.
These compounds were tested on Osteoclast (assay: Bone resorption activity assessed as inhibition of PGE2-stimulated pit formation in ddY mouse osteoclasts).
Type: functional, cell-based

Compound	Activity
C[C@]12CC[C@@H]3c4ccc(O)cc4CC[C@H]3[C@@H]1CC[C@@H]2O	Active
CCOC(=O)/C=C/C=C1\OC(/C=C/c2ccccc2)=Nc2c1oc1ccc(Br)cc21	Active
O=C/C=C1\OC(/C=C/c2ccccc2)=Nc2c1oc1ccc(Br)cc21	inactive
